Test results: patent publication US20240025906A1 (NEURON23, INC., priority 2022, published 2024)
Where two headings read alike, the source gives them in different places.

Columns and labels:
TYK2 JH2 = molecular target: T1, TYK2 JH2 (Homo sapiens, UniProt P29597); assay: TYK2 JH2 binding assay (KINOMEscan KdELECT competitive binding); conditions: TYK2 JH2 domain
T1 construct: purchased DiscoverX (KINOMEscan KdELECT service); host or cells: E. coli BL21-derived (T7 phage display) or HEK-293
How it was run: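 Test compounds were titrated in 11 three-fold steps against JH2 fragment captured on ligand-loaded magnetic beads, with 1 h incubation at room temperature and DMSO at 0.9%. Eluted kinase was quantified by qPCR, and Kd was fitted from the dose series.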

[1] = tested on: JAK1/TYK2 pSTAT5 (Tyr694/699) in THP-1 cell line; assay: IFNa-stimulated JAK1/TYK2 pSTAT5 (Tyr694/699) inhibition cellular assay, AlphaLISA; format: cell-based; conditions: Homo sapiens, THP-1 cells, IFNa-stimulated, AlphaLISA (Assay B)
How it was run: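 An eight-point 6-fold titration of compound (0.04–10000 nM final) is given to THP-1 cells for 1 h before 30 min of IFNa exposure. Phospho-STAT5 is read by AlphaLISA at 615 nm. IC50 values are derived by logistic regression with bottom set to 0 and Hill slope set to −1.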

[2] = KINOMEscan KdELECT (Assay A), read-out: Biochemical TYK2_JH2_Kd
[3] = read-out: Cellular THP1_IFNa-pSTATS_IC50
[4] = KINOMEscan KdELECT (Assay A), read-out: Biochemical TYK2_DiscoverX_JH2_BND_Kd
[5] = read-out: Cellular_THP1_IFNa-pSTATS_TYK2
[6] = DiscoverX KINOMEscan KdELECT (Assay A), read-out: Biochemical TYK2_DiscoverX_JH2_BND_Kd

T1 sequence (P29597 589-875 limits assumed): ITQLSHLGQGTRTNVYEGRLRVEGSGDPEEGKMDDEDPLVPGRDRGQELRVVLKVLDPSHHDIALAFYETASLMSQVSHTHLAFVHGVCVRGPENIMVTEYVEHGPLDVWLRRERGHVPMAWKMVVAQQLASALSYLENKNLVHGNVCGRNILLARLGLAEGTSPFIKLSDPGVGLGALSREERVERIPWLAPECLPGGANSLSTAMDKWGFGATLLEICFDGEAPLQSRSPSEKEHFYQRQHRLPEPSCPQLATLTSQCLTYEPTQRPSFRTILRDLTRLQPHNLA

Row | Kd (TYK2 JH2; [2]) | IC50 [1, 3] | Kd (TYK2 JH2; [4]) | IC50 [1, 5] | Kd (TYK2 JH2; [6]) | Compound
1 | ≤ 100 nM | > 500 nM | – | – | – | CNc1ncc(-c2ccccc2)c2cc(NC(=O)C3CC3(F)F)ncc12 (stereo not drawn) [Example 105, 2,2-difluoro-N-(8-(methylamino)-5-phenyl-2,7-naphthyridin-3-yl)cyclopropane-1-carboxamide]
2 | – | – | ≤ 100 nM | ≤ 500 nM | – | CNc1ncc(C#Cc2cc3ccccn3n2)c2cc(NC(=O)[C@H]3C[C@H]3C(F)F)ncc12 (single isomer, unassigned) [Example 755]
3 | – | – | – | ≤ 500 nM | ≤ 100 nM | CCNc1ncc(-c2nc3cc(OC)ccc3o2)c2cc(NC(=O)C3CC3)ncc12 [Example 459, N-(8-(ethylamino)-5-(5-methoxybenzo[d]oxazol-2-yl)-2,7-naphthyridin-3-yl)cyclopropanecarboxamide]
4 | – | – | ≤ 100 nM | ≤ 500 nM | – | CNc1ncc(C#Cc2ccc3nnn(C)c3c2)c2cc(Nc3ccccn3)ncc12 [Example 751, N^1-methyl-4-((1-methyl-1H-benzo[d][1,2,3]triazol-6-yl)ethynyl)-N^6-(pyridin-2-yl)-2,7-naphthyridine-1,6-diamine]
5 | – | – | ≤ 100 nM | ≤ 500 nM | – | CNc1ncc(C#Cc2ccc(OC[C@H]3COCCO3)cc2)c2cc(NC(=O)C3CC3)ncc12 [Example 741, (R)—N-(5-((4-((1,4-dioxan-2-yl)methoxy)phenyl)ethynyl)-8-(methylamino)-2,7-naphthyridin-3-yl)cyclopropanecarboxamide]
6 | – | – | – | ≤ 500 nM | ≤ 100 nM | CNc1ncc(-c2nc3cc(OCCC#N)ccc3o2)c2cc(NC(=O)C3CC3)ncc12 [Example 227, N-(5-(5-(2-cyanoethoxy)benzo[d]oxazol-2-yl)-8-(methylamino)-2,7-naphthyridin-3-yl)cyclopropanecarboxamide]
7 | 100 to 1000 nM | > 500 nM | – | – | – | C=Cc1cc2cc(NC(=O)C3CC3)ncc2c(NC)n1 [Example 164, N-(8-(methylamino)-6-vinyl-2,7-naphthyridin-3-yl)cyclopropanecarboxamide]
8 | 100 to 1000 nM | > 500 nM | – | – | – | C=C(c1ccc(OC)cc1)c1cnc(NC)c2cnc(NC(=O)C3CC3)cc12 [Example 136]
9 | – | – | ≤ 100 nM | ≤ 500 nM | – | CNc1ncc(C#Cc2ccc(S(C)(=O)=O)cn2)c2cc(NC(=O)C3CC3)ncc12 [Example 640, N-(8-(methylamino)-5-((5-(methylsulfonyl)pyridin-2-yl)ethynyl)-2,7-naphthyridin-3-yl)cyclopropanecarboxamide]
10 | – | – | ≤ 100 nM | ≤ 500 nM | – | CNc1ncc(-c2nc3cc(N4CCCC(F)(F)C4)ccc3o2)c2cc(NC(=O)C3CC3)ncc12 [Example 938, N-[5-[5-(3,3-difluoro-1-piperidyl)-1,3-benzoxazol-2-yl]-8-(methylamino)-2,7-naphthyridin-3-yl]cyclopropanecarboxamide]
11 | – | – | ≤ 100 nM | ≤ 500 nM | – | CNc1ncc(C#Cc2ccc3c(c2)CC[C@H](COC)O3)c2cc(NC(=O)C3CC3)ncc12 (single isomer, unassigned) [Example 988]
12 | – | – | – | > 500 nM | ≤ 100 nM | CNc1ncc(-c2nc3cc(OC)ccc3o2)c2cc(NC3CCC(=O)O3)ncc12 (stereo not drawn) [Example 403, 5-((5-(5-methoxybenzo[d]oxazol-2-yl)-8-(methylamino)-2,7-naphthyridin-3-yl)amino)dihydrofuran-2(3H)-one]
13 | – | – | – | ≤ 500 nM | ≤ 100 nM | [2H]C([2H])([2H])Nc1ncc(-c2nc3ccc(N4CCC(F)(F)CC4)cn3n2)c2cc(NC(=O)C3CC3)ncc12 [Example 513, N-(5-(6-(4,4-difluoropiperidin-1-yl)-[1,2,4]triazolo[1,5-a]pyridin-2-yl)-8-((methyl-d3)amino)-2,7-naphthyridin-3-yl)cyclopropanecarboxamide]
14 | – | – | ≤ 100 nM | ≤ 500 nM | – | CNc1ncc(-c2nc3cc(C4(C)CCCO4)ccc3o2)c2cc(NC(=O)C3CC3)ncc12 (stereo not drawn) [Example 947, N-(8-(methylamino)-5-(5-(2-methyltetrahydrofuran-2-yl)benzo[d]oxazol-2-yl)-2,7-naphthyridin-3-yl)cyclopropanecarboxamide]
15 | – | – | – | ≤ 500 nM | ≤ 100 nM | [2H]C([2H])([2H])Nc1ncc(-c2nc3ccc(N4CCOCC4)cn3n2)c2cc(NC(=O)[C@H]3C[C@H]3C)ncc12 [Example 572, (1S,2R)-2-methyl-N-(8-((methyl-d3)amino)-5-(6-morpholino-[1,2,4]triazolo[1,5-a]pyridin-2-yl)-2,7-naphthyridin-3-yl)cyclopropane-1-carboxamide]
16 | – | – | ≤ 100 nM | ≤ 500 nM | – | CNc1ncc(C#Cc2ccc(OC)cc2Cl)c2cc(NC(=O)C3CC3)ncc12 [Example 635, N-(5-((2-chloro-4-methoxyphenyl)ethynyl)-8-(methylamino)-2,7-naphthyridin-3-yl)cyclopropanecarboxamide]
17 | – | – | – | ≤ 500 nM | ≤ 100 nM | CNc1ncc(-c2nc3cc(N4CCO[C@@H](C)C4)ccc3o2)c2cc(NC(=O)C3(C)CC3)ncc12 [Example 409, (S)-1-methyl-N-(8-(methylamino)-5-(5-(2-methylmorpholino)benzo[d]oxazol-2-yl)-2,7-naphthyridin-3-yl)cyclopropane-4-carboxamide]
18 | – | – | – | ≤ 500 nM | ≤ 100 nM | CNc1ncc(-c2nc3cc(O[C@@H](C)COC)ccc3o2)c2cc(NC(=O)C3CC3)ncc12 [Example 350, (S)—N-(5-(5-((1-methoxypropan-2-yl)oxy)benzo[d]oxazol-2-yl)-8-(methylamino)-2,7-naphthyridin-3-yl)cyclopropanecarboxamide]
19 | – | – | ≤ 100 nM | ≤ 500 nM | – | CNc1ncc(C#Cc2ccc3oc(CO)cc3c2)c2cc(NC(=O)C3CC3)ncc12 [Example 642, N-(5-((2-(hydroxymethyl)benzofuran-5-yl)ethynyl)-8-(methylamino)-2,7-naphthyridin-3-yl)cyclopropanecarboxamide]
20 | ≤ 100 nM | > 500 nM | – | – | – | CNc1ncc(-c2ccn(Cc3nccs3)n2)c2cc(NC(=O)C3CC3)ncc12 [Example 151, N-(8-(methylamino)-5-(1-(thiazol-2-ylmethyl)-1H-pyrazol-3-yl)-2,7-naphthyridin-3-yl)cyclopropanecarboxamide]
21 | – | – | ≤ 100 nM | ≤ 500 nM | – | CNc1ncc(/C=C/c2ccc(OCCC#N)cc2)c2cc(NC(=O)C3CC3)ncc12 [Example 794, (E)-N-(5-(4-(2-cyanoethoxy)styryl)-8-(methylamino)-2,7-naphthyridin-3-yl)cyclopropanecarboxamide]
22 | – | – | ≤ 100 nM | ≤ 500 nM | – | CNc1ncc(C#Cc2ccc(OC)cn2)c2cc(NC(=O)[C@@H]3C[C@@H]3C(F)(F)F)ncc12 (single isomer, unassigned) [Example 746]
23 | – | – | – | ≤ 500 nM | ≤ 100 nM | CNc1ncc(-c2nc3ccc(OC)cn3n2)c2cc(NC(=O)C3CC3)ncc12 [Example 470, N-(5-(6-methoxy-[1,2,4]triazolo[1,5-a]pyridin-2-yl)-8-(methylamino)-2,7-naphthyridin-3-yl)cyclopropanecarboxamide]
24 | – | – | ≤ 100 nM | ≤ 500 nM | – | CNc1ncc(C#Cc2ccc3nnn(CC(C)(C)O)c3c2)c2cc(NC(=O)C3CC3)ncc12 [Example 684, N-(5-((1-(2-hydroxy-2-methylpropyl)-1H-benzo[d][1,2,3]triazol-6-yl)ethynyl)-8-(methylamino)-2,7-naphthyridin-3-yl)cyclopropanecarboxamide]
25 | – | – | – | ≤ 500 nM | ≤ 100 nM | CNc1ncc(-c2nc3cc(OC)ccc3o2)c2cc(NC(=O)C3(O)CC3)ncc12 [Example 404, 1-hydroxy-N-(5-(5-methoxybenzo[d]oxazol-2-yl)-8-(methylamino)-2,7-naphthyridin-3-yl)cyclopropane-1-carboxamide]
26 | – | – | – | ≤ 500 nM | ≤ 100 nM | CNc1ncc(-c2nc3cc(Oc4ccn(C)n4)ccc3o2)c2cc(NC(=O)C3CC3)ncc12 [Example 341, N-(5-(5-((1-methyl-1H-pyrazol-3-yl)oxy)benzo[d]oxazol-2-yl)-8-(methylamino)-2,7-naphthyridin-3-yl)cyclopropanecarboxamide]
27 | – | – | – | ≤ 500 nM | ≤ 100 nM | CC[C@H]1C[C@@H]1C(=O)Nc1cc2c(-c3nc4ccc(N5CCOCC5)cn4n3)cnc(NC)c2cn1 (single isomer, unassigned) [Example 585]
28 | – | – | ≤ 100 nM | ≤ 500 nM | – | CNc1ncc(C#Cc2cc3ccccn3n2)c2cc(NC(=O)[C@@H]3C[C@@H]3C(F)F)ncc12 (single isomer, unassigned) [Example 754]
29 | – | – | ≤ 100 nM | ≤ 500 nM | – | CNc1ncc(C#Cc2ccc(N3CCO[C@H](C)C3)cc2)c2cc(NC(=O)C3CC3)ncc12 [Example 708, (R)—N-(8-(methylamino)-5-((4-(2-methylmorpholino)phenyl)ethynyl)-2,7-naphthyridin-3-yl)cyclopropanecarboxamide]

Row | Compound | Kd (TYK2 JH2; [2]) | IC50 [1, 3] | Kd (TYK2 JH2; [4]) | IC50 [1, 5] | Kd (TYK2 JH2; [6])
30 | CNc1ncc(-c2nc3ccc(N4C5CCC4COC5)cn3n2)c2cc(NC(=O)C3CC3)ncc12 [Example 487, N-(5-(6-(3-oxa-8-azabicyclo[3.2.1]octan-8-yl)-[1,2,4]triazolo[1,5-a]pyridin-2-yl)-8-(methylamino)-2,7-naphthyridin-3-yl)cyclopropanecarboxamide] | – | – | – | ≤ 500 nM | ≤ 100 nM
